We go through two substances from patent US8771973B2, “Methods for treating bleeding disorders using sulfated polysaccharides” (Baxter Healthcare S.A., priority 2004, dated 2014).

In data set [1] the test system is Hem-A plasma. Briefly: dPT assay, anti-coagulant activity of NASPs in Hem-A plasma. It counts as biochemical, human. The following applies: for clotting time, dPT: Hem-A plasma without NASP 41.5 seconds; for concentration for 50% prolongation of clotting time, fold higher than heparin: dPT, Hem-A plasma. Here is the method:
(§1) The dPT assay used was a modified standard clinical PT assay (Nordfang et al. (1991) Thromb Haemost 66:464-467; Welsch et al. (1991) Thrombosis Research 64: 213-222). SIMPLASTIN EXCEL thromboplastin reagent (Organon Teknika) was reconstituted with the manufacturer's diluent and further diluted 1:100 in 0.9% saline. The thromboplastin reagent, 25 mM CaCl2, and plasma samples were pre-warmed to 37° C. before initiating the assay. 100 μl of thawed plasma was aliquoted into microcentrifuge tubes. […] 100 μl of the diluted thromboplastin reagent and 100 μl of 25 mM CaCl2 were added to fibrin cups (Fisher) prewarmed to 37° C. 100 μl of plasma (normal or hemophilic) containing the test agent or saline control was added to the fibrin cups containing the thromboplastin reagent and CaCl2 to initiate clotting. The time for plasma clotting was measured with a BBL FIBROSYSTEM fibrometer.
Test compounds were diluted to 100 μM, 10 μM, 2 μM and 200 nM. For each test compound, 12.5 μl of a diluted solution containing the test compound was added to 237.5 μl of Hem-A plasma and incubated at room temperature. 100 μl of plasma containing the test compound was removed for dPT assays of plasma clotting time as described in Example 2.

For data set [2], the system named is rabbits. The following applies: intravenously at 10 mg/kg; cited from earlier work.
Data set [3] concerns Hem-A mice. Briefly: First fucoidan study, survival of Hem-A mice after bleeding test. Format: in vivo. The following applies: vehicle 1/6. Here is the method:
Given the improved potency and magnitude of efficacy of fucoidan relative to PPS in some of the clotting assays described above, additional studies were performed in Hem-A mice with fucoidan. In the first study with fucoidan, nearly the same regimen as described for PPS was adopted, but with slightly different dose levels. Hem-A male mice were administered fucoidan at a dose of 0.1 or 1.0 mg/kg or saline subcutaneously twice daily for 4 days. On the morning of the 5th day, mice received a doubled dose of fucoidan prior to the bleeding test. Survival and animal behavior were evaluated for mice treated with fucoidan compared to vehicle controls.
In the first study, treatment of mice with fucoidan at a dose of 0.1 mg/kg appeared to be more efficacious than treatment at a dose of 1.0 mg/kg (survival at about 10 hours was 1/6 for vehicle, 4/6 for 0.1 mg/kg, and 3/6 for 1.0 mg/kg).

Data set [4] has as its target T1, TFPI (Homo sapiens, UniProt P10646).
T1 construct: purchased American Diagnostica (Stamford, Conn.)
T1 sequence (P10646 29-304): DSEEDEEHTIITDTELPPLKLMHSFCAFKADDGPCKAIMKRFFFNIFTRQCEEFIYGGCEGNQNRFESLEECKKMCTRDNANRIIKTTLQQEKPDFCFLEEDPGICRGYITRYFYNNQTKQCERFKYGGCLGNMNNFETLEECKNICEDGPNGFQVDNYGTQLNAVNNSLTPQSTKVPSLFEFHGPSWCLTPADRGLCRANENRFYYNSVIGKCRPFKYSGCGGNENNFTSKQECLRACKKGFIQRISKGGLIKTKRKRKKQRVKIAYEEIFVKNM
In words: dPT assay, inhibition of TFPI activity in Hem-A plasma, TFPI preincubated with NASP. It counts as biochemical. The following applies: Hem-A + TFPI, preincubation, plasma alone 44, + TFPI 151 seconds. Here is the method:
as §1
Inhibition of TFPI activity by NASPs was assessed in dPT clotting assays with normal or hemophilic plasma and added recombinant TFPI. Diluted recombinant TFPI was preincubated with NASPs for 5 minutes at room temperature before plasma was added. After addition of plasma, the mixture was incubated for an additional 25 minutes followed by dPT initiation.

In data set [5] the test system is Hem-A mice. In words: Second fucoidan study, fucoidan +/- FVIII, survival of Hem-A mice after tail vein transection. It counts as in vivo. The following applies: fucoidan 0.1 mg/kg s.c. twice daily 4.5 days, FVIII 1.25% reconstitution 2 hours prior. Here is the method:
In a second study with fucoidan, combination therapy potential with factor VIII was evaluated. This study was performed as described above, except on the morning of the fifth day, mice received an intravenous bolus dose of 53 mU/mouse FVIII (about 1.25% of the normal level of FVIII) in a tail vein far up near the body. As before, the lateral tail vein, and not the artery, was transected 2 hours later at the region corresponding to a diameter of about 2.7 mm. […] Survival and clinical observations were recorded for 20-24 hours.

Data set [6] concerns rats. The following applies: subcutaneously; cited from earlier work.
The test system of data set [7] is Hem-B mice. Briefly: Survival after tail clip, PPS-treated Hem-B mice. The following applies: 0.06 mg/kg s.c. twice daily 4.5 days, vehicle 25, p = 0.07. It counts as in vivo. Here is the method:
(§2) Hem-A mice (homozygous for the exon 16 FVIII KO allele) were licensed from John Hopkins University, and Hem-B mice (homozygous for the exon 1-3 FIX KO) were licensed from University of North Carolina at Chapel Hill. All animal procedures were performed according to “Guide for the Care and Use of Laboratory Animals” (National Research Council. Guide for the care and use of laboratory animals. Washington, D.C.: National Academy Press; 1996) and all procedures were reviewed and approved by an institutional animal care and use committee.
(§3) A. PPS Efficacy in Hem-A and Hem-B Mice The efficacy of PPS in improving clotting in Hem-A and Hem-B mice was tested. Hem-A and Hem-B male or female mice were administered PPS at a dose of 0.02, 0.06, or 0.2 mg/kg or saline vehicle subcutaneously twice daily for […]. On the morning of the fifth day after dosing, the tail was clipped 1 cm from the tip, and behavior and survival were monitored for the next 20-24 hours.

Data set [8] deals with Hem-A mice. Briefly: Survival after tail clip, PPS-treated Hem-A mice. Format: in vivo. Here is the method:
as §2, §3

Data set [9] relates to Hem-B mice. In words: dPT clotting time of blood samples from Hem-B mice treated with PPS. It counts as in vivo. On the set-up: unit not given here. Here is the method:
The efficacy of PPS in improving clotting in Hem-B mice was further tested in dPT assays. All mice were bled prior to the study to establish baseline (pretest) clotting times. Mice (14 weeks old) were treated subcutaneously twice a day with PPS for 4.5 days at the following doses: 2, 0.3 and 0.06 mg/kg in a volume of 250 μl. Mice were bled after 4.5 days, and clotting times were determined from collected blood samples.

Marks after values point to notes of the source that are not given here.

Take Fucoidan: the “clotting time, dPT” value in [1] (10 nM) stood at 39 s; in data set [1] (100 nM), 38 s; in [1] (500 nM), 60 s; in data set [4] (0.16 nM), 130 s; in data set [4] (0.8 nM), 108 s; in data set [4] (4 nM) it was 72 s. Moreover, the “clotting time, dPT” value in data set [4] (20 nM) was determined as 54 s; in [4] (100 nM), 46 s; in data set [4] (500 nM), 75 s. For the same substance, the “concentration for 50% prolongation of clotting time, fold higher than heparin” value in data set [1] is listed as “approximately 10 fold”. Also, in data set [2], the tolerability entry is reported as “well-tolerated”. Also, the “survival at about 10 hours” value in data set [3] (0.1 mg/kg s.c. twice daily) is on record as 4/6; in data set [3] (1.0 mg/kg s.c. twice daily) it was 3/6. The “% Survival 9 hr” value in [5] (9 hr after tail vein incision, vehicle 21) is listed as 61 * %. The “% Survival 20 hr” value in data set [5] (20 hr after tail vein incision, vehicle 7) is 38 ^+ %.

In the case of Pentosan Polysulphate Sodium [PPS], in data set [6], the “doses required to prolong clotting” value is listed as over 5 mg/kg. Also, the “% Survival (20 hours post-cut)” value in data set [7] is listed as 44 ^# %; in data set [8] (0.02 mg/kg s.c. twice daily 4.5 days, vehicle 25), 20 ^ %; in data set [8] (0.06 mg/kg s.c. twice daily 4.5 days, vehicle 25, p = 0.07), 44 ^# %; in data set [8] (0.2 mg/kg s.c. twice daily 4.5 days, vehicle 25) it was 40 ^ %. Also, the “clotting time, dPT” value in data set [1] (10 nM) was 39 s; in data set [1] (100 nM) it was 37 s; in data set [1] (500 nM) it was 40 s; in data set [1] (5000 nM), 70 s; in [4] (0.16 nM), 158 s; in data set [4] (0.8 nM), 111 s. Moreover, the “clotting time, dPT” value in data set [4] (4 nM) was determined as 91 s; in data set [4] (20 nM), 55 s; in data set [4] (100 nM) it was 57 s; in [4] (500 nM) it was 74 s. Besides, the “concentration for 50% prolongation of clotting time, fold higher than heparin” value in data set [1] is reported as about 100 fold. Further, the improvement in survival entry in [8] (0.06 mg/kg, not statistically significant (0.05<p<0.1)) was “nearly two-fold improvement in survival”. Further, the “Mean clotting time at 4.5 days” value in [9] (0.06 mg/kg s.c. twice a day) is 37; in data set [9] (0.3 mg/kg s.c. twice a day), 38; in data set [9] (2.0 mg/kg s.c. twice a day), 44.
